Reference: patent publication EP0229718A2, “Labelling blood cells” (AMERSHAM INTERNATIONAL plc, priority 1986, dated 1987)

What was measured:
[1] = tested on: "mixed" leucocyte suspension; test: In vitro labelling of a mixed leucocyte suspension from patients (Example 6); format: cell-based
Experimental: (§1) Hexamethylpropylene-amineoxime (HMPAO) forms a lipid-soluble neutral complex with ^99mTc which is rapidly incorporated into leucocytes in vitro. In six patients with suspected or known inflammatory disease, a "mixed" leucocyte suspension isolated from 85 ml blood anticoagulated with acid-citrate-dextrose was labelled by ^99mTc-HMPAO with a mean efficiency of 47%, of which 78% was taken up by granulocytes. […] Four patients also received ¹¹¹In-labelled "pure" granulocytes.
(§2) This experiment is described in more detail in The Lancet, October 25 1986, pages 946-949.

inflammatory disease = test: Imaging of inflammatory disease in patients with labelled leucocytes (Example 6); format: in vivo
Experimental: as §1, §2

## C/C(=N\[O-])[C@@H](C)[N-]CC(C)(C)C[N-][C@H](C)/C(C)=N/O.[O]=[99Tc+3] (racemic) [^99mTc-HMPAO]
[1]; elution compared with other cell types
  retention of label in granulocytes in vitro: remained firmly labelled
[1]; of the cell-bound label
  share of the label taken up by granulocytes: 78%
[1]; six patients, leucocytes from 85 ml blood anticoagulated with acid-citrate-dextrose
  mean labelling efficiency: 47%
Inflammatory disease; at 30-40 min, mean
  granulocyte recovery in blood: 32%
Inflammatory disease; four patients also received ¹¹¹In-labelled granulocytes
  image detail compared with ¹¹¹In-labelled "pure" granulocytes: comparable or superior to the ¹¹¹In images
Inflammatory disease; six patients, from 30 min (five patients) or 3 h (sixth), remained positive at 20-24 h
  detection of inflammatory disease by imaging: All six patients were positive for inflammatory disease
